Test results taken from patent US20240091303A1, “BIOMARKER-BASED TREATMENT OF FOCAL SEGMENTAL GLOMERULOSCLEROSIS AND DIABETIC KIDNEY DISEASE” (Goldfinch Bio, Inc., priority 2019, published 2024).

Columns and labels:
[1] = system: DOCA-salt hypertensive rats; assay: Effects of cyclosporine A and tacrolimus in DOCA-salt hypertensive rats (albuminuria); format: in vivo, Sprague Dawley rats; parameters: urinary albumin excretion: dose or concentration left out as unconfirmed
Method: The DOCA-salt hypertensive rat model is a well-established model of mineralocorticoid hypertension with renal dysfunction leading to an FSGS phenotype, characterized by increased levels of urinary protein and albumin excretion. [Schenk et al., “The pathogenesis of DOCA-salt hypertension,” J. Pharmacol. Toxicol.
Six to seven weeks old Sprague Dawley rats were unilaterally nephrectomized; after one-week recovery, rats were implanted with a DOCA pellet (45 mg) and provided tap water containing 0.9% NaCl and 0.2% KCl (Day 1) for a 3 weeks treatment. […] Sham animals, implanted with a silicone-water pellet, were given tap water and received administration of the vehicle. Proteinuria and albuminuria were recorded every week, and body weight was recorded daily.

[2] = system: DOCA-salt hypertensive rats; assay: Effects of Compound 3 in DOCA-salt hypertensive rats (albuminuria), eplerenone control; format: in vivo, Sprague Dawley rats
Method: The aim of this study was to evaluate the effects of the TRCPS inhibitor, Compound 3, to attenuate the development and/or progression of albuminuria in deoxycorticosterone acetate (DOCA)-salt hypertensive rats.
Six to seven weeks old Sprague Dawley rats were unilaterally nephrectomized; after one-week recovery, rats were implanted with a DOCA pellet (45 mg) and provided tap water containing 0.9% NaCl and 0.2% KCl (Day 1) for a 4 weeks treatment. On Day 1, DOCA-salt rats received one daily dose of Compound 3 administered by oral gavage at 30 mg/kg for 4 weeks; control animals for DOCA treatment were administered vehicle or the mineralocorticoid receptor antagonist (MCRA) eplerenone by twice-daily oral gavage at 50 mg/kg. Sham animals, implanted with a silicone-water pellet, were given tap water and received SC administration of the vehicle. Body weight was recorded daily and proteinuria, albuminuria and arterial blood pressure were recorded every week.

[3] = system: Rac1 protein in the urine; assay: Urinary Rac1 analysis in healthy human subjects following treatment with Compound 1 (Phase 1, NCT03970122); format: in vivo
Method: The aim of this study was to measure the amount of Rac1 protein in the urine of healthy human subjects treated with Compound 1.
Healthy human subjects enrolled in a Phase 1 clinical study, “A First-In-Human, Phase 1, Placebo-Controlled Study to Evaluate the Safety, Tolerability, and Pharmacokinetics of Compound 1, a TRPC5 Channel Inhibitor, in Healthy Subjects and Subjects With Renal Impairment,” (NCT03970122) were administered a single, oral dose of either a placebo or 20 mg Compound 1 as a tablet. A urine sample was collected prior to administration of drug, and urine pools were then collected from 0-4 hours, 4-8 hours, 8-12 hours, 12-24 hours, 24-48 hours and 48-72 hours after dosing.
(§1) For Rac1 analysis, urine samples were concentrated as follows: 20 mL of urine was spun at 1500×g for 5 min to remove cell debris. Samples were concentrated using a Pierce protein concentrator with 10 kDa MWCO (Cat# 88516, Thermo Scientific, USA) and spun at 6000×g for 30 min at 4° C. using rotor JA 14.50 (Beckman Coulter, USA) in an AVANTI-JE centrifuge, (Beckman Coulter). A second centrifugation at 6000×g for 30 min at 4° C. was performed for samples that were concentrated to a volume that was >1 mL, to achieve a volume of <1 mL for all samples. The concentrated urine was collected and stored in −80° C. Next, the samples were analyzed for urinary Rac1 by ELISA (Cat# abx253084, Abbexa Ltd, UK) and urinary creatinine by ELISA (Cat# ab65340, Abcam, USA) following standard procedures according to the manufacturer's instructions. The amount of Rac1 in the urine was normalized to the amount of creatinine in the urine to control for the volume of urine produced.
Additional data was obtained from human subjects that were administered a single, oral dose of either a placebo, 5 mg of Compound 1 as a liquid suspension or 20, 40 or 80 mg of Compound 1 as tablets. A urine sample was collected prior to administration of drug, and urine pools were then collected from 0-4 hours, 4-8 hours, 8-12 hours, 12-24 hours, and for each 24 hour period from day 2 through day 7 after dosing. Each dose level comprised 2 placebo and 8 treated subjects.

[4] = system: Rac1 protein in the urine; assay: Urinary Rac1 analysis in naive rats following treatment with Compound 1; format: in vivo, Sprague Dawley rats; conditions: 10 mg/kg oral gavage once daily for 7 days
Method: The aim of this study was to measure the amount of Rac1 protein in the urine of healthy rats treated with Compound 1.
Six to seven weeks old Sprague Dawley rats were placed in metabolic cage housing for urine collection. Following two 24-hour periods of pre-dose urine collection, received one daily dose of Compound 1 administered by oral gavage at 10 mg/kg for 7 days; control animals were administered vehicle. Urine was collected for 24-hour periods beginning on the day of dosing inception and on days 3 and 6 of dosing.
as §1, with “Urine” for “For Rac1 analysis, urine”, “The amount of Rac1 in the urine was normalized to the amount of creatinine in the urine to control for the volume of urine produced.” left out

[5] = system: ZDSD rats; assay: ZDSD model of diabetic nephropathy, albuminuria; format: in vivo, rat
Excerpt: The aim of this study was to evaluate the effects of the TRCPS inhibitor, Compound 1, to attenuate the development and/or progression of albuminuria in ZDSD model of diabetic nephropathy (DN).
The ZDSD model is an established model which recapitulates the major features of diabetes including impaired glucose metabolism, neuropathy, retinopathy and nephropathy [Peterson et al., “Characterization of the ZDSD Rat: A Translational Model for the Study of Metabolic Syndrome and Type 2 Diabetes,” J. Diabetes. Res. (2015), Article ID 487816, 10 pages; Peterson et aL, “The ZDSD rat: a novel model of diabetic nephropathy,” Am. J. Transl. Res. (2017) 9: 4236-4249].
Male ZDSD rats (Crown Bioscience, Indianapolis, IN., n=79) were maintained on standard rodent chow (Purina 5008) from weaning to 15 weeks of age. A diabetogenic diet (Research Diet D124668) was initiated and maintained for three weeks to synchronize development of hyperglycemia. Diabetogenic diet was replaced with Purina 5008 for remainder of the study. Animals were housed two per cage and maintained on a 12 hour light cycle (0600-1800). Room temperature was monitored daily and maintained at 70-74° F. Food and water were provided ad libitum for duration of the study. […]
Body weight was recorded weekly. Food consumption was recorded weekly during the treatment phase from week 0 through 12. […]

[6] = system: COL4A4 knockout mice; assay: Effects of Compound 1 in COL4A4 knockout mice (Alport model); format: in vivo, mouse; conditions: 3 mg/kg or 10 mg/kg oral gavage once daily for 4 weeks, FIG. 8
Excerpt: The aim of this study was to evaluate the effects of the TRCPS inhibitor, Compound 1, to attenuate the development and/or progression of albuminuria in […] knockout mice.
The COL4A4 knockout mouse model is a well-established model of Alport disease, characterized by increased levels of urinary protein and albumin excretion. [Korstanje et al., “A mouse Col4a4 mutation causing Alport glomerulosclerosis with abnormal collagen α3α4α5(IV) trimers,” Kidney Int. (2014) 85:1461-1468].
Four to five weeks old COL4A4 knockout mice were received one daily dose of Compound 1 administered by oral gavage at 3 mg/kg or 10 mg/kg for 4 weeks; control animals were administered vehicle. Body weight was recorded daily and urinary protein and creatinine were recorded every week, and the ratio of urine protein to creatinine (UPCR) was calculated.

[7] = system: DOCA-salt hypertensive rats; assay: Effects of Compound 1 in DOCA-salt hypertensive rats (albuminuria); format: in vivo, Sprague Dawley rats; conditions: for urinary albumin excretion: week 2 to week 4, FIG. 7
Excerpt: The aim of this study was to evaluate the effects of the TRCPS inhibitor, Compound 1, to attenuate the development and/or progression of albuminuria in deoxycorticosterone acetate (DOCA)-salt hypertensive rats.
(§2) The DOCA-salt hypertensive rat model is a well-established model of mineralocorticoid hypertension with renal dysfunction leading to an FSGS phenotype, characterized by increased levels of urinary protein and albumin excretion. [Schenk et al., “The pathogenesis of DOCA-salt hypertension,” J. Pharmacol. Toxicol. Methods (May 1992) 27 (3):161-170; Gomez-Sanchez et al., “Mineralocorticoids, salt and high blood pressure,” Steroids (1996) 61:184-188.]
Six to seven weeks old Sprague Dawley rats were unilaterally nephrectomized; after one-week recovery, rats were implanted with a DOCA pellet (45 mg) and provided tap water containing 0.9% NaCl and 0.2% KCl (Day 1) for a 4 weeks treatment. On Day 1, DOCA-salt rats received one daily dose of Compound 1 administered by oral gavage at 3 mg/kg or 10 mg/kg for 4 weeks; control animals for DOCA treatment were administered vehicle. Sham animals, implanted with a silicone-water pellet, were given tap water and received oral administration of the vehicle. Body weight was recorded daily and proteinuria, albuminuria and arterial blood pressure were recorded every week.

[8] = system: Rac1 protein in the urine; assay: Urinary Rac1 analysis in DOCA-salt hypertensive rats following treatment with Compound 1; format: in vivo, Sprague Dawley rats
Excerpt: The aim of this study was to measure the amount of Rac1 protein in the urine of DOCA-salt hypertensive rats treated with Compound 1.
as §2
Six to seven weeks old Sprague Dawley rats were unilaterally nephrectomized. After one-week recovery, rats were implanted with a DOCA pellet (45 mg) and provided tap water containing 0.9% NaCl and 0.2% KCl (Day 1) for a 4 weeks treatment. […] Body weight was recorded daily throughout the study. […] Urine was collected for 24-hour periods beginning on day 17, day 20, day 24 and day 27, and urine protein and albumin were measured using standard methods.
For Rac1 analysis, urine samples were concentrated as follows: 20 mL of urine was spun at 1500×g for 5 min to remove cell debris. […] Next, the samples were analyzed for urinary Rac1 by ELISA (Cat# abx253084, Abbexa Ltd, UK) and urinary creatinine by ELISA (Cat# ab65340, Abcam, USA) following standard procedures according to the manufacturer's instructions. […]

With `C=CC[C@@H]1/C=C(\C)C[C@H](C)C[C@H](OC)[C@H]2O[C@@](O)(C(=O)C(=O)N3CCCC[C@H]3C(=O)O[C@H](/C(C)=C/[C@@H]3CC[C@@H](O)[C@H](OC)C3)[C@H](C)[C@@H](O)CC1=O)[C@H](C)C[C@@H]2OC` [tacrolimus, Tacrolimus] the body weight ([1]; DOCA and tacrolimus 0.3 mg/kg oral gavage daily, first two weeks) was “significant loss of body weight”, the urinary albumin excretion ([1]; tacrolimus 0.3/0.1 oral daily, weeks 2 and 3 vs DOCA-vehicle (p<0.05), FIG. 12) was “significantly attenuated urinary albumin excretion” and the “body weight after dose adjustment” value ([1]; tacrolimus dose adjusted from 0.3 mg/kg down to 0.1 mg/kg after two weeks of dosing) was “reversed the weight loss”.
In the case of `COC(=O)[C@@H]1CC2=CC(=O)CC[C@]2(C)[C@@]23O[C@@H]2C[C@@]2(C)[C@@H](CC[C@@]24CCC(=O)O4)[C@H]13` [eplerenone], the body weight ([2]; DOCA vs DOCA plus Compound 3 (30 mg/kg oral daily) or eplerenone (50 mg/kg oral twice daily)) is reported as “no significant difference” and the urinary albumin excretion ([2]; eplerenone 50 mg/kg twice-daily oral gavage, week 4 vs DOCA-vehicle (p<0.05), FIG. 10) is reported as “significantly attenuated urinary albumin excretion”.
With `O=c1[nH]ncc(N2CCc3c(ncnc3Oc3ccc(F)cc3C(F)(F)F)C2)c1Cl` [Compound 1] the “urinary Rac1 levels (Rac1 normalized to creatinine)” value ([3]; healthy humans, single oral 20 mg tablet, vs pre-dose, significance by 8-12 hours after dosing (p<0.05), FIG. 4) was “reduced urinary Rac1 levels”, the “time urinary Rac1 levels remained reduced” value ([3]; humans, single 40 mg oral dose) was “up to 4 days” and the “time urinary Rac1 levels remained reduced” value ([3]; humans, single 80 mg oral dose) was “at least 7 days”. The “urinary Rac1 levels” value ([3]; humans, single oral dose 5 mg suspension or 20, 40, 80 mg tablets, significance by 8-12 hours with 40 mg and 80 mg doses vs pre-dose (p<0.05), FIG. 4B) was “reduced urinary Rac1 levels”, the adverse effects [4] was “No adverse effects were observed” and the “urinary Rac1 levels (Rac1 normalized to creatinine)” value ([4]; vs pre-dose levels, significance at day 4 (p<0.01), FIG. 2) was “reduced urinary Rac1 levels”. For the same molecule, the body weight ([5]; 3 mg/kg and 10 mg/kg oral gavage daily for 12 weeks, vs vehicle group, last two weeks of study) was “increase in body weight”, the urinary albumin excretion ([5]; 3 or 10 mg/kg/d oral gavage 12 weeks, week 6 to week 12, significance at weeks 10 to 12 vs vehicle (p<0.001), FIG. 6) was “attenuated urinary albumin excretion” and the “urinary protein to creatinine ratio (UPCR)” value [6] was “no effect”. For the same molecule, the urinary albumin excretion ([7]; 3 mg/kg oral daily, significant at week 3 vs DOCA-vehicle (p<0.05)) was “attenuated urinary albumin excretion”, the urinary albumin excretion ([7]; 10 mg/kg oral daily, vs DOCA-vehicle, p<0.05 week 2, p<0.001 weeks 3 and 4) was “attenuated urinary albumin excretion” and the body weight ([7]; DOCA vs DOCA and Compound 1, 3 or 10 mg/kg oral daily 4 weeks) was “no significant difference”. The adverse effects ([7]; DOCA-salt rats, 3 or 10 mg/kg oral gavage once daily for 4 weeks) was “No adverse effects were observed”, the adverse effects ([8]; 10 mg/kg oral gavage once daily for 7 days from day 21) was “No adverse effects were observed” and the “urinary Rac1 levels (Rac1 normalized to creatinine)” value ([8]; 10 mg/kg oral gavage once daily for 7 days from day 21, vs pre-dose levels, significance day 25 (p<0.01), FIG. 3) was “reduced urinary Rac1 levels”.
